The values below come from US7767670B2, “Substituted 3-carboxamido isoxazoles as kinase modulators” (Ambit Biosciences Corporation, priority 2003, dated 2010).

SMILES strings stand for the structures. Where only a bound is given, the exact number is not on record here.

The target in this assay is T1, MKNK2 (Homo sapiens, UniProt Q9HBH9).
T1 construct: made in house; host or cells: T7 bacteriophage display
The experiment in a line: Binding constant (Kd) measurement, phage-displayed kinase competition binding assay. Particulars: immobilized ATP site ligand competition, read-out: activity towards the target (Kd). The text has this: Binding Constant (Kd) Measurements for Small-Molecule-Kinase Interactions

T1 sequence (Q9HBH9 whole entry): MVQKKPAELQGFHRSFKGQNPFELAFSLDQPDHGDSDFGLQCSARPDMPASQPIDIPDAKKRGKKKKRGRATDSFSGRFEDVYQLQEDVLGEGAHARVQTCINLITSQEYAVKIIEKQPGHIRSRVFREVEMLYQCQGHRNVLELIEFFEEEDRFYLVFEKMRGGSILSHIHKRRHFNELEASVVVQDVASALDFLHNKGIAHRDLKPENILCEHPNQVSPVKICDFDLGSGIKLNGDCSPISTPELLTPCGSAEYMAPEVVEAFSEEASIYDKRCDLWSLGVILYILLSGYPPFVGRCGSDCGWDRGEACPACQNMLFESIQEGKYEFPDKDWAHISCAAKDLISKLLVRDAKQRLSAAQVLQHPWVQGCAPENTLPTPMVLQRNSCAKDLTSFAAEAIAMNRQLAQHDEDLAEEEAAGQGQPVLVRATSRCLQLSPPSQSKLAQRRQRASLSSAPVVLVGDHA

As for `CC(C)(C)c1cc(NC(=O)Cc2ccc(NC(=O)c3ccc4cnccc4n3)cc2)no1` [Compound F2], the Kd was less than 50 nM.

Usually Kd stands for the concentration at which binding is half-saturated.
